Data from US20210253518A1, “KINASE INHIBITOR” (NISSAN CHEMICAL CORPORATION, priority 2018, published 2021).

Key:
[1] = target: T1, LATS1 (Homo sapiens, UniProt O95835); assay: Kinase Assay method (Fluorospark Kinase/ADP Multi-Assay Kit); type: biochemical
T1 construct: purchased Carna Biosciences
T1 sequence (O95835 589-1130 limits assumed): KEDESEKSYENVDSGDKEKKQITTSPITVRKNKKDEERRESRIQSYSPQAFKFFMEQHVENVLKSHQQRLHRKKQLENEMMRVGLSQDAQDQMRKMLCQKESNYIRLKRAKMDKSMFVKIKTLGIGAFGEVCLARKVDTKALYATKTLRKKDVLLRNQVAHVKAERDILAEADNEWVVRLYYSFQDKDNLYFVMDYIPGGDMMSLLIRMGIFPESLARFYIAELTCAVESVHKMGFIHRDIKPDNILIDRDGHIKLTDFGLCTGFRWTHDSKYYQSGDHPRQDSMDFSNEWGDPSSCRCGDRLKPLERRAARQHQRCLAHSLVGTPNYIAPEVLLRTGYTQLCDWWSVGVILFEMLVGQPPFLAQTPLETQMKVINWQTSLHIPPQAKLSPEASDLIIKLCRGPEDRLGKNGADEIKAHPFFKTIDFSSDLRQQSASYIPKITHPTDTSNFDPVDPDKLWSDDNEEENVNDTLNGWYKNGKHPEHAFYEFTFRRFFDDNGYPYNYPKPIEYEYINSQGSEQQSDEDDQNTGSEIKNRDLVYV
Protocol: (§1) For compound k-1:B-1 (racemate), GA-002A, GA-002B, GA-005A and GA-005B, inhibitory activity evaluation (calculation of IC50) was performed on LATS1 and LATS2 (manufactured by Carna Biosciences). The activity was measured using the Kinase Assay method described below. The compounds were added such that the test concentration of k-1:B-1 (racemate), GA-002A, GA-002B, GA-005A and GA-005B was in 8 steps (10 μM, 1 μM, 100 nM, […], 10 nM, 3 nM, 1 nM, 0.3 nM) from the final concentration of 10 μM to 0.3 nM.
(§2) As the analysis method of the data, the mean signal of the control well containing reaction components other than the evaluation compound was set to 0% inhibition, the mean signal without enzyme addition was set to 100% inhibition, and the inhibition rate was calculated from the mean signal of 2 wells of each test substance test. IC50 value was calculated using EXSUS (version 7.1.6, manufactured by CAC EXICARE Corporation).
(§3) 2 μL of a compound of the present invention solution at 2.5-fold concentration, 1 μL of substrate at 5-fold concentration (SGKtide: NH2—CKKRNRRLSVA-COOH, manufactured by SignalChem), ATP (manufactured by Sigma-Aldrich), MgCl2 (manufactured by FUJIFILM Wako Pure Chemical Corporation) solution (final concentration 10 μM, 400 μM or 5 mM), and 2 μL of kinase solution at 2.5-fold concentration (final concentration of LATS1 or LATS2 5 μg/mL), each prepared with assay buffer (20 mM HEPES, 0.01% Triton X-100, 2 mM DTT, pH 7.5), were mixed in the wells of a polypropylene 384-well plate (manufactured by Greiner Bio-One, #784900) and reacted at room temperature for 5 hr. Successively, 5 μL detection solution (Fluorospark (registered trade mark)Kinase/ADP Multi-Assay Kit; manufactured by FUJIFILM Wako Pure Chemical Corporation) was added, and the mixture was reacted at room temperature 30 min. Successively, 5 μL of a reaction quenching liquid (Fluorospark (registered trade mark) Kinase/ADP Multi-Assay Kit; manufactured by FUJIFILM Wako Pure Chemical Corporation) was added to discontinue the reaction. Thereafter, the ADP concentration of the reaction solution was quantified by EnSpire (manufactured by PerkinElmer) to detect the kinase reaction.

[2] = target: T2, LATS2 (Homo sapiens, UniProt Q9NRM7); assay: as above; type: biochemical
T2 construct: purchased Carna Biosciences
T2 sequence (Q9NRM7 553-1088 limits assumed): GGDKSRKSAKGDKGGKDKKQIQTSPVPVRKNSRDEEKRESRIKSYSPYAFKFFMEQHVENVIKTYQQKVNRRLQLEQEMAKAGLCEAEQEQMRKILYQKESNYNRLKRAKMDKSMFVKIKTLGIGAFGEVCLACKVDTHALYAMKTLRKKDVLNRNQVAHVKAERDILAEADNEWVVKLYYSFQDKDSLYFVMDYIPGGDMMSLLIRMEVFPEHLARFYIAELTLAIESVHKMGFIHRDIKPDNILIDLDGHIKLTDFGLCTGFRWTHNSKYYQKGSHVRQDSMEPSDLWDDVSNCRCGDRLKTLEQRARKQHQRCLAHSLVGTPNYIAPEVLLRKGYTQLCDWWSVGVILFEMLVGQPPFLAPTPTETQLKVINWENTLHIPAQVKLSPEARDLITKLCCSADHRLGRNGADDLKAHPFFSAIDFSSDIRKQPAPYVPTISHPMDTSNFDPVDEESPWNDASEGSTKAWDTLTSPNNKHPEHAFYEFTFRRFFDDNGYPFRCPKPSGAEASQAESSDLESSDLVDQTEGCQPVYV
Protocol: as §1, §2, §3

[3] = tested on: YAP (phospho-S127 and total); assay: YAP phosphorylation inhibitory action in SKOV3 cells (HTRF, YAP-total kit / YAP phospho-S127 kit); type: cell-based, human; details: 10 μM, 1 hr, Non-treatment as 100%
Protocol: Human ovarian cancer cell line SKOV3 (manufactured by DS Pharma Biomedical Co., Ltd) was precultured (single layer culture) in a 15% FBS-containing McCoy's 5a medium (manufactured by Sigma Ltd. Aldrich). The above-mentioned cells in the logarithmic growth phase were washed with PBS, a 0.25% (w/v) trypsin-1 mmol/L ethylenediaminetetraacetic acid (EDTA) solution (manufactured by Fujifilm Wako Pure Chemical Corporation) was added, and adherent cells were detached by incubating at 37° C. for 3 min. The above-mentioned medium was added and the mixture was centrifuged and resuspended in the same medium.
According to the method of patent document (WO 2014/017513), a composition of 10% FBS-containing DMEM medium (Phenol-red free, manufactured by FUJIFILM Wako Pure Chemical Corporation) containing 0.015% (w/v) deacylated gellan gum (KELCOGEL CG-LA, manufactured by SANSHO Co., Ltd.) was prepared using FCeM-series Preparation Kit (manufactured by FUJIFILM Wako Pure Chemical Corporation). Then, various cells prepared above were suspended in the above-mentioned medium composition (3D conditions) added with deacylated gellan gum or a medium without the addition (2D conditions), and seeded on a 50 μL/well (manufactured by Corning Incorporated, 96 well flat bottom plate, #3585, 2D conditions) or 25 μL/well (manufactured by Corning Incorporated, 96 well low adhesion flat bottom plate, #3474) at 100000 cells/well. The plate was allowed to stand at 37° C. in a 5% CO2 incubator, and the compound of the present invention diluted with the medium at 2 or 6 times the final concentration, DMSO, or the medium alone was added to the plate 3 hr after the seeding at 50 μL/well (2D conditions) or 5 μL/well (3D conditions) to make the final concentration of each compound 10 μM. After culture at 37° C. in a 5% CO2 incubator for 1 hr, the supernatant was aspirated, supplemented Lysis buffer (1-fold concentration, manufactured by Cisbio, YAP-total kit or YAP phospho-S127 kit) (50 μL) was added under 2D conditions, and supplemented Lysys buffer (4-fold concentration) (10 μL) was added to the culture supernatant under 3D conditions, and the mixture was stirred by a plate shaker for 30 min. Thereafter, the plate was centrifuged, 16 μL of the supernatant was transferred to a 384-well white plate (Corning, #4512), and each antibody solution (pYAP d2 antibody or Total-YAP d2 antibody, and pYAP Cryptate antibody or Total-YAP Cryptate antibody) included in the kit was added at 4 μL/well in total, and the mixture was allowed to stand at room temperature overnight. As a blank control, pYAP Cryptate antibody or Total-YAP Cryptate antibody alone was added to cells free of stimulation with compound and the mixture was treated in the same manner (Non-treatment). The next day, the wavelengths at 665 nm and 615 nm were measured in the HTRF mode of EnVision (manufactured by PerkinElmer).
The obtained signal was calculated as follows. Ratio=signal (665 nm)/signal (615 nm)×10000, ΔR=Signal(Ratio)−Background fluorescence, and the relative value with respect to ΔR of the compound non-addition group (Non-treatment) as 100% was calculated, and the phosphorylated YAP amount or total YAP amount by each compound was evaluated.

[4] = Kinase Assay method, 8 steps 10 μM to 0.3 nM

CC/C(=N\NC(=O)[C@@H](C)Nc1cccc(O)c1)c1ccc(O)c(C)c1O [GA-005A]
inhibition at 0.1 µM ([1]; 100 nM, read-out: LARS1 inhibitory rate (%)): 96% | inhibition at 1 µM ([1]; 1000 nM, read-out: LARS1 inhibitory rate (%)): 97% | IC50 [1, 4]: 4.79 nM | inhibition at 0.1 µM ([2]; 100 nM, read-out: LARS2 inhibitory rate (%)): 99% | inhibition at 1 µM ([2]; 1000 nM, read-out: LARS2 inhibitory rate (%)): 100% | IC50 [2, 4]: 7.39 nM | phosphorylated YAP (%) ([3]; 2D condition): 10% | total YAP (%) ([3]; 2D condition): 91% | phosphorylated YAP (%) ([3]; 3D condition): 10% | total YAP (%) ([3]; 3D condition): 107%
